Measured values taken from ChEMBL document CHEMBL1773045, “Conjugate (MTC-220) of muramyl dipeptide analogue and paclitaxel prevents both tumor growth and metastasis in mice” (J Med Chem, 2011).
Activity calls are given as the source filed them. The calls are words filed in the database; no cut-off is given here.

Legend:
[1] = system: 4T1; test: Antitumor activity against mouse 4T1 cells xenografted in […] mouse assessed as tumor growth inhibition at 2.5 mg/kg, ip qd for 28 days relative to control; assay type: functional; details: 4T1, ip, 672 h, route intraperitoneal, read-out: GI
[2] = system: 4T1; test: Antitumor activity against mouse 4T1 cells xenografted in […] mouse assessed as tumor growth inhibition at 10 mg/kg, ip qd for 28 days relative to control; assay type: functional; details: 4T1, ip, 672 h, route intraperitoneal, read-out: GI
[3] = system: Mus musculus; test: Antimetastatic activity against mouse 4T1 cells xenografted in BALB/c mouse assessed as reduction of MMP9 mRNA expression in tumor at 5 mg/kg, ip qd for 23 days by RT-PCR analysis; assay type: functional, organism-based; parameters: dose 5 mg/kg
[4] = system: HL-60(TB); test: Growth inhibition of human HL-60(TB) cells after 48 hrs by sulforhodamine B assay; assay type: functional; details: HL-60, 48 h
[5] = system: HT-29; test: Growth inhibition of human HT-29 cells after 48 hrs by sulforhodamine B assay; assay type: functional; details: HT-29, 48 h
[6] = system: U-251; test: Growth inhibition of human U251 cells after 48 hrs by sulforhodamine B assay; assay type: functional; details: U-251, 48 h
[7] = system: IGROV-1; test: Growth inhibition of human IGROV1 cells after 48 hrs by sulforhodamine B assay; assay type: functional; details: IGROV-1, 48 h
[8] = system: OVCAR-4; test: Growth inhibition of human OVCAR4 cells after 48 hrs by sulforhodamine B assay; assay type: functional; details: OVCAR-4, 48 h
[9] = system: MCF7; test: Growth inhibition of human MCF7 cells after 48 hrs by sulforhodamine B assay; assay type: functional; details: MCF7, 48 h
[10] = system: MDA-MB-435; test: Growth inhibition of human MDA-MB-435 cells after 48 hrs by sulforhodamine B assay; assay type: functional; details: MDA-MB-435, 48 h

CC(=O)O[C@H]1C(=O)[C@@]2(C)[C@H]([C@H](OC(=O)c3ccccc3)[C@]3(O)C[C@H](OC(=O)[C@H](OC(=O)CCC(=O)NCCCC[C@H](NC(=O)CC[C@H](NC(=O)[C@H](C)NC(=O)/C=C/c4ccc(Cl)cc4)C(N)=O)C(N)=O)[C@H](NC(=O)c4ccccc4)c4ccccc4)C(C)=C1C3(C)C)[C@]1(OC(C)=O)CO[C@@H]1C[C@@H]2O was tested, and the inhibition in vivo at 2.5 mg/kg [1] was 27.4%, the inhibition in vivo at 10 mg/kg [2] was 45.9% and the Activity [3] was “Active”. For the same molecule, the GI50 [4] was under 0.01 µM, the GI50 [5] was under 0.01 µM and the GI50 [6] was under 0.01 µM. The GI50 [7] was under 0.01 µM, the GI50 [8] was under 0.01 µM and the GI50 [9] was under 0.01 µM. For the same molecule, the GI50 [10] was under 0.01 µM.
